The values below come from article PMC7592913, “PE homeostasis rebalanced through mitochondria-ER lipid exchange prevents retinal degeneration in Drosophila” (PLoS Genetics, 2020).

The target in this assay is T1, PECT (Drosophila melanogaster, UniProt Q9VK25).
T1 construct: pect cDNA in pMAL, N-terminal MBP fusion (tag kept), E. coli BL21 (DE3), amylose column
Nature of the assay: LC-MS (SRM) detection of CDP-ethanolamine product. Format: biochemical. The conditions noted are these: 1 mM phosphoethanolamine, 2 mM CTP, 10 mM MgCl2, 1 mM DTT, 1 uM MBP-PECT, pH 7.7, 37 °C, 15 min.

The structures appear in SMILES notation.

T1 sequence (Q9VK25 1-393): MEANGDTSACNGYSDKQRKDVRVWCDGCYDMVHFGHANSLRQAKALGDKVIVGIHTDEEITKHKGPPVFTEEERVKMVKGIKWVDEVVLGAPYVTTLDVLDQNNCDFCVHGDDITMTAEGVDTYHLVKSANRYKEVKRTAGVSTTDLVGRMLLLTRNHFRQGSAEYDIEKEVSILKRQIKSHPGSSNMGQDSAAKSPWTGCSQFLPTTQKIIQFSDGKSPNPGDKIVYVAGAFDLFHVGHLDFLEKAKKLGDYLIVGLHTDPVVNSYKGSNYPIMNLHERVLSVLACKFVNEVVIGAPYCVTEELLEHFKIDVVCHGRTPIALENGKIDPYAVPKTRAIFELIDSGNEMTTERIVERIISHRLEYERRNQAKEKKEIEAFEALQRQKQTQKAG

Take `NCCOP(=O)(O)O` [phosphoethanolamine]: the “LC-MS (SRM) detection of CDP-ethanolamine product” value was “CDP-ethanolamine was detected by the mass spectrum after incubating phosphoethanolamine and CTP with PECT”.
Turning to `Nc1ccn([C@@H]2O[C@H](COP(=O)(O)OP(=O)(O)OP(=O)(O)O)[C@@H](O)[C@H]2O)c(=O)n1` [CTP], the “LC-MS (SRM) detection of CDP-ethanolamine product” value is “CDP-ethanolamine was detected by the mass spectrum after incubating phosphoethanolamine and CTP with PECT”.
